In brackets after ≈: the same amount, converted by molar mass. Like-named read-outs stand apart in the source and are kept apart here.
Assays:
Format in all cases: cell-based
[1] = system: Staphylococcus aureus NRS384 (MRSA); assay: Broth microdilution MIC, S. aureus NRS384 (MRSA); details: Staphylococcus aureus, broth microdilution, 37° C., 20 hours
In short: (§1)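 Two-fold dilutions from 64 to 0.0625 μg/ml final, 1% DMSO, were inoculated at ~5.0×10^5 cfu/ml in the strain's test medium and kept 20 h at 37 °C in ambient atmosphere. Colonies were grown on MHA, with S. pneumoniae on blood agar under 5% CO2.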

[2] = system: Staphylococcus aureus ATCC 29213 (MSSA); assay: Broth microdilution MIC, S. aureus ATCC 29213 (MSSA); details: broth microdilution, 37° C., 20 hours, read-out: MIC S. aureus ATCC 29213 (MSSA)
In short: as §1

[3] = system: Enterococcus faecalis ATCC 29212; assay: Broth microdilution MIC, E. faecalis ATCC 29212; details: ATCC29212, broth microdilution, 37° C., 20 hours, read-out: MIC E. faecalis ATCC 29212
In short: as §1

[4] = system: Enterococcus faecium ATCC 700221 (VRE); assay: Broth microdilution MIC, E. faecium ATCC 700221 (VRE); details: Enterococcus faecium, broth microdilution, 37° C., 20 hours
In short: as §1

[5] = system: Streptococcus pneumoniae ATCC 49619; assay: Broth microdilution MIC, S. pneumoniae ATCC 49619; details: ATCC49619, broth microdilution, 37° C., 20 hours, read-out: MIC S. pneumoniae ATCC 49619
In short: as §1

[6] = system: Bacillus subtilis ATCC 6633; assay: Broth microdilution MIC, B. subtilis ATCC 6633; details: ATCC6633, broth microdilution, 37° C., 20 hours, read-out: MIC B. subtilis ATCC 6633
In short: as §1

[7] = system: Escherichia coli ATCC 25922; assay: Broth microdilution MIC, E. coli ATCC 25922 (MHIIB w & w/o 4 mM EDTA); details: broth microdilution, 37° C., 20 hours; for MIC: Escherichia coli, ATCC25922, without EDTA, read-out: MIC E. coli ATCC 25922; for MIC E. coli ATCC 25922 + 4 mM EDTA: with 4 mM EDTA
In short: as §1

[8] = read-out: MIC E. faecium ATCC 700221 (VRE)

Row | Compound | MIC ([1]; read-out: MIC NRS 384 (MRSA)) [µg/mL] | MIC [2] [µg/mL] | MIC [3] [µg/mL] | MIC [4, 8] [µg/mL] | MIC [5] [µg/mL] | MIC [6] [µg/mL] | MIC [7] [µg/mL] | MIC E. coli ATCC 25922 + 4 mM EDTA [7] [µg/mL] | MIC ([1]; MHIIB, read-out: MIC against S. aureus NRS 384 (MRSA)) [µg/mL] | MIC ([4]; MHIIB, read-out: MIC against E. faecium ATCC 700221 (VRE)) [µg/mL]
1 | O=C(CCCCn1ncc2nc(NCc3ccc(Cl)c(Cl)c3)[nH]c(=O)c21)NO [Compound 217, 5-[5-[(3,4-dichlorophenyl)methylamino]-7-oxo-6H-pyrazolo[4,3-d]pyrimidin-1-yl]pentanehydroxamic acid] | 32 (≈ 75.2 µM) | 32 (≈ 75.2 µM) | 16 (≈ 37.6 µM) | 16 (≈ 37.6 µM) | 4 (≈ 9.41 µM) | 8 (≈ 18.8 µM) | > 64 | >64 |  | 
2 | O=C(O)CCCCn1ncc2nc(NCc3ccc(Cl)c(Cl)c3)[nH]c(=O)c21 [Compound 219, 5-[5-[(3,4-dichlorophenyl)methylamino]-7-oxo-6H-pyrazolo[4,3-d]pyrimidin-1-yl]pentanoic Acid] | 16 (≈ 39 µM) | 32 (≈ 78 µM) | 16 (≈ 39 µM) | 4 (≈ 9.75 µM) | 4 (≈ 9.75 µM) | 32 (≈ 78 µM) | > 64 | >64 |  | 
3 | CS(=O)(=O)CCOCCn1ncc2nc(NCc3ccc(Cl)c(Cl)c3)[nH]c(=O)c21 [Compound 220, 5-((3,4-dichlorobenzyl)amino)-1-(2-(2-(methylsulfonyl)ethoxy)ethyl)-1H-pyrazolo[4,3-d]pyrimidin-7(6H)-one] | 16 (≈ 34.8 µM) | 8 (≈ 17.4 µM) | 8 (≈ 17.4 µM) | 2 (≈ 4.34 µM) | 2 (≈ 4.34 µM) | 4 (≈ 8.69 µM) | > 64 | >64 |  | 
4 | O=c1[nH]c(NCc2ccc(Cl)c(Cl)c2)nc2cnn(CCCc3nnn[nH]3)c12 [Compound 221, 1-(3-(1H-tetrazol-5-yl)propyl)-5-((3,4-dichlorobenzyl)amino)-1H-pyrazolo[4,3-d]pyrimidin-7(6H)-one] | > 64 | > 64 | > 64 | 32 (≈ 76.1 µM) | 64 (≈ 152 µM) | > 64 | > 64 | >64 |  | 
5 | O=c1[nH]c(NCc2ccc(Cl)c(Cl)c2)nc2cnn(-c3ccncc3)c12 [Compound 222, 5-[(3,4-dichlorophenyl)methylamino]-1-(4-pyridyl)-6H-pyrazolo[4,3-d]pyrimidin-7-one] | 1 (≈ 2.58 µM) | 2 (≈ 5.16 µM) | 4 (≈ 10.3 µM) | 2 (≈ 5.16 µM) | 2 (≈ 5.16 µM) | 1 (≈ 2.58 µM) | > 64 | 64 | ≤ 1 | ≤ 1
6 | CC(C(=O)O)n1cc2nc(NCc3ccc(Cl)c(Cl)c3)[nH]c(=O)c2n1 (centres unmarked) [Compound 223, 2-(5-((3,4-dichlorobenzyl)amino)-7-oxo-6,7-dihydro-2H-pyrazolo[4,3-d]pyrimidin-2-yl)propanoic acid] | > 64 | > 64 | > 64 | > 64 | > 64 | > 64 | > 64 | >64 |  | 
7 | COC(=O)C(C)n1cc2nc(NCc3ccc(Cl)c(Cl)c3)[nH]c(=O)c2n1 (centres unmarked) [Compound 224, Methyl 2-(5-((3,4-dichlorobenzyl)amino)-7-oxo-6,7-dihydro-2H-pyrazolo[4,3-d]pyrimidin-2-yl)propanoate] | > 64 | > 64 | > 64 | > 64 | 32 (≈ 80.8 µM) | > 64 | > 64 | >64 |  | 
8 | CC(CO)n1cc2nc(NCc3ccc(Cl)c(Cl)c3)[nH]c(=O)c2n1 (centres unmarked) [Compound 225, 5-((3,4-dichlorobenzyl)amino)-2-(1-hydroxypropan-2-yl)-2H-pyrazolo[4,3-d]pyrimidin-7(6H)-one] | 64 (≈ 174 µM) | 64 (≈ 174 µM) | 64 (≈ 174 µM) | 32 (≈ 86.9 µM) | 16 (≈ 43.5 µM) | 32 (≈ 86.9 µM) | > 64 | >64 |  | 
9 | CC(C(=O)O)n1ncc2nc(NCc3ccc(Cl)c(Cl)c3)[nH]c(=O)c21 (centres unmarked) [Compound 226, 2-(5-((3,4-dichlorobenzyl)amino)-7-oxo-6,7-dihydro-1H-pyrazolo[4,3-d]pyrimidin-1-yl)propanoic acid] | 64 (≈ 167 µM) | > 64 | > 64 | 64 (≈ 167 µM) | > 64 | 64 (≈ 167 µM) | > 64 | >64 |  | 
10 | COC(=O)C(C)n1ncc2nc(NCc3ccc(Cl)c(Cl)c3)[nH]c(=O)c21 (centres unmarked) [Compound 227, Methyl 2-(5-((3,4-dichlorobenzyl)amino)-7-oxo-6,7-dihydro-1H-pyrazolo[4,3-d]pyrimidin-1-yl)propanoate] | 8 (≈ 20.2 µM) | 8 (≈ 20.2 µM) | 16 (≈ 40.4 µM) | 4 (≈ 10.1 µM) | 16 (≈ 40.4 µM) | 4 (≈ 10.1 µM) | > 64 | 32 |  | 
11 | CC(CO)n1ncc2nc(NCc3ccc(Cl)c(Cl)c3)[nH]c(=O)c21 (centres unmarked) [Compound 228, 5-((3,4-dichlorobenzyl)amino)-1-(1-hydroxypropan-2-yl)-1H-pyrazolo[4,3-d]pyrimidin-7(6H)-one] | 8 (≈ 21.7 µM) | 16 (≈ 43.5 µM) | 16 (≈ 43.5 µM) | 8 (≈ 21.7 µM) | 8 (≈ 21.7 µM) | 4 (≈ 10.9 µM) | > 64 | 64 |  | 
12 | O=C(O)CCn1ncc2nc(NCc3ccc(Cl)c(Cl)c3)[nH]c(=O)c21 [Compound 229, 3-(5-((3,4-dichlorobenzyl)amino)-7-oxo-6,7-dihydro-1H-pyrazolo[4,3-d]pyrimidin-1-yl)propanoic Acid] | > 64 | > 64 | 64 (≈ 167 µM) | 64 (≈ 167 µM) | 16 (≈ 41.9 µM) | > 64 | > 64 | >64 |  | 
13 | O=C(O)CCn1cc2nc(NCc3ccc(Cl)c(Cl)c3)[nH]c(=O)c2n1 [Compound 230, 3-(5-((3,4-Dichlorobenzyl)amino)-7-oxo-6,7-dihydro-2H-pyrazolo[4,3-d]pyrimidin-2-yl)propanoic acid] | 64 (≈ 167 µM) | > 64 | 64 (≈ 167 µM) | 64 (≈ 167 µM) | 32 (≈ 83.7 µM) | 64 (≈ 167 µM) | > 64 | 64 |  | 
14 | COC(=O)CCn1ncc2nc(NCc3ccc(Cl)c(Cl)c3)[nH]c(=O)c21 [Compound 231, Methyl 3-(5-((3,4-dichlorobenzyl)amino)-7-oxo-6,7-dihydro-1H-pyrazolo[4,3-d]pyrimidin-1-yl)propanoate] | 2 (≈ 5.05 µM) | 4 (≈ 10.1 µM) | 4 (≈ 10.1 µM) | 2 (≈ 5.05 µM) | 4 (≈ 10.1 µM) | 1 (≈ 2.52 µM) | > 64 | >64 |  | 
15 | COC(=O)CCn1cc2nc(NCc3ccc(Cl)c(Cl)c3)[nH]c(=O)c2n1 [Compound 232, Methyl 3-(5-((3,4-dichlorobenzyl)amino)-7-oxo-6,7-dihydro-2H-pyrazolo[4,3-d]pyrimidin-2-yl)propanoate] | 32 (≈ 80.8 µM) | > 64 | > 64 | 16 (≈ 40.4 µM) | 16 (≈ 40.4 µM) | 16 (≈ 40.4 µM) | > 64 | >64 |  | 
